# PubChem BioAssay AID318 (DTP/NCI, 2004)
# Several values for one entry are separate records, joined by “and”; a condition that tells them apart may be missing. Equal values may be shown once. Toxic doses and inconclusive results are not listed.
# System: BDF1 mice, P815 leukemia ip, survival T/C
# Assay: NCI In Vivo Anticancer Drug Screen. Data for tumor model P815 Mast Cell Leukemia (Ascitic) (intraperitoneal) in B6D2F1 (BDF1) mice
# Conditions: endpoint: survival time, mean or median, higher = longer survival
# Description: The antitumor activity of compounds was measured in mice bearing transplantable tumors. Survival or tumor size were measured and the results are expressed as the measurement made in the treated group (T) divided by the measurement made in the vehicle treated control group (C). The tumor model used in this assay is P815 Mast Cell Leukemia (Ascitic) (intraperitoneal) in B6D2F1 (BDF1) mice
# [1] = dose: 62.5 mg/kg/injection, schedule: Q01DX010 (ip), vehicle: saline
# [2] = dose: 125.0 mg/kg/injection, schedule: Q01DX010 (ip), vehicle: saline
# [3] = dose: 250.0 mg/kg/injection, schedule: Q01DX010 (ip), vehicle: saline
# [4] = dose: 500.0 mg/kg/injection, schedule: Q01DX010 (ip), vehicle: saline
compound,measurement,setting,value
Cc1c(O)ccc(=O)n1O,T/C,"dose: 49.0 mg/kg/injection, schedule: Q01DX015 (ip), vehicle: other",95 % of control
same,T/C,"dose: 73.0 mg/kg/injection, schedule: Q01DX015 (ip), vehicle: other",113 % of control
same,T/C,"dose: 110.0 mg/kg/injection, schedule: Q01DX015 (ip), vehicle: other",105 % of control
same,T/C,"dose: 165.0 mg/kg/injection, schedule: Q01DX015 (ip), vehicle: other",100 % of control
same,T/C,"dose: 247.0 mg/kg/injection, schedule: Q01DX015 (ip), vehicle: other",95 % of control
CC(=O)N(C)C,T/C,[1],91 % of control and 100 % of control
same,T/C,[2],100 % of control and 108 % of control
same,T/C,[3],91 % of control
same,T/C,[4],95 % of control and 104 % of control
COc1ccc(C[n+]2cc([O-])on2)cc1,T/C,"dose: 12.5 mg/kg/injection, schedule: Q01DX015 (ip), vehicle: carboxymethylcellulose (CMC)",111 % of control
same,T/C,"dose: 25.0 mg/kg/injection, schedule: Q01DX015 (ip), vehicle: carboxymethylcellulose (CMC)",114 % of control
same,T/C,"dose: 100.0 mg/kg/injection, schedule: Q01DX015 (ip), vehicle: carboxymethylcellulose (CMC)",107 % of control
CC(CCC(C)OS(C)(=O)=O)OS(C)(=O)=O (centres undefined),T/C,"dose: 2.0 mg/kg/injection, schedule: Q01DX010 (ip), vehicle: saline",100 % of control
same,T/C,"dose: 4.0 mg/kg/injection, schedule: Q01DX010 (ip), vehicle: saline",100 % of control and 105 % of control
same,T/C,"dose: 8.0 mg/kg/injection, schedule: Q01DX010 (ip), vehicle: saline",100 % of control and 105 % of control
same,T/C,"dose: 16.0 mg/kg/injection, schedule: Q01DX010 (ip), vehicle: saline",120 % of control
Cn1c(N)nc2nc[nH]c2c1=S,T/C,"dose: 10.0 mg/kg/injection, schedule: Q01DX010 (ip), vehicle: saline",106 % of control
same,T/C,"dose: 20.0 mg/kg/injection, schedule: Q01DX010 (ip), vehicle: saline",100 % of control and 111 % of control
same,T/C,"dose: 40.0 mg/kg/injection, schedule: Q01DX010 (ip), vehicle: saline",100 % of control
same,T/C,"dose: 160.0 mg/kg/injection, schedule: Q01DX010 (ip), vehicle: saline",100 % of control
Nc1ncnc2[nH]ncc12,T/C,"dose: 1.5 mg/kg/injection, schedule: Q01DX010 (ip), vehicle: saline",100 % of control
same,T/C,"dose: 3.0 mg/kg/injection, schedule: Q01DX010 (ip), vehicle: saline",100 % of control
same,T/C,"dose: 6.0 mg/kg/injection, schedule: Q01DX010 (ip), vehicle: saline",100 % of control and 104 % of control
same,T/C,"dose: 12.0 mg/kg/injection, schedule: Q01DX010 (ip), vehicle: saline",100 % of control and 109 % of control
Nc1ccc(OC(=O)Oc2ccc(N)cc2)cc1,T/C,"dose: 25.0 mg/kg/injection, schedule: Q01DX015 (ip), vehicle: saline",97 % of control
same,T/C,"dose: 50.0 mg/kg/injection, schedule: Q01DX015 (ip), vehicle: saline",102 % of control
same,T/C,"dose: 100.0 mg/kg/injection, schedule: Q01DX015 (ip), vehicle: saline",108 % of control
same,T/C,"dose: 200.0 mg/kg/injection, schedule: Q01DX015 (ip), vehicle: saline",104 % of control
C(CC1CO1)C1CO1 (centres undefined),T/C,"dose: 40.0 mg/kg/injection, schedule: Q01DX015 (ip), vehicle: saline",150 % of control
same,T/C,"dose: 60.0 mg/kg/injection, schedule: Q01DX015 (ip), vehicle: saline",172 % of control
C=CCSc1nc(N)nc2nc[nH]c12,T/C,"dose: 15.0 mg/kg/injection, schedule: Q01DX015 (ip), vehicle: other",113 % of control
same,T/C,"dose: 16.0 mg/kg/injection, schedule: Q01DX015 (ip), vehicle: other",109 % of control
same,T/C,"dose: 31.0 mg/kg/injection, schedule: Q01DX015 (ip), vehicle: other",96 % of control and 107 % of control
same,T/C,"dose: 62.0 mg/kg/injection, schedule: Q01DX015 (ip), vehicle: other",106 % of control and 112 % of control
same,T/C,"dose: 125.0 mg/kg/injection, schedule: Q01DX015 (ip), vehicle: other",89 % of control and 91 % of control
CS(=O)(=O)OCC(O)C(O)C(O)C(O)COS(C)(=O)=O (centres undefined),T/C,"dose: 25.0 mg/kg/injection, schedule: Q01DX010 (ip), vehicle: saline",100 % of control
same,T/C,"dose: 50.0 mg/kg/injection, schedule: Q01DX010 (ip), vehicle: saline",100 % of control and 112 % of control
same,T/C,"dose: 100.0 mg/kg/injection, schedule: Q01DX010 (ip), vehicle: saline",95 % of control and 112 % of control
same,T/C,"dose: 200.0 mg/kg/injection, schedule: Q01DX010 (ip), vehicle: saline",95 % of control and 112 % of control
same,T/C,"dose: 400.0 mg/kg/injection, schedule: Q01DX010 (ip), vehicle: saline",112 % of control
O=c1cn[nH]c(=O)[nH]1,T/C,[1],91 % of control and 95 % of control
same,T/C,[2],91 % of control and 100 % of control
same,T/C,[3],95 % of control
same,T/C,[4],100 % of control and 104 % of control
